Experimental data reported in the supplement of paper PMC10949913.

What was measured:
Details in all cases: 48 h
CU-ACC2 [1] = assay: AC50 viability; higher = less potent
Procedure, shortened: (§1)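 In 1,536-well plates, 500–1,000 cells/well of three adrenocortical carcinoma cell lines in 5 µL medium received 23 nL of each library compound across 11 concentrations. At 48 h, CellTiter-Glo was incubated for 15 minutes at room temperature and luminescence measured. Per-plate normalisation used vehicle and empty-well controls, and only inhibitory or non-responding curve classes were kept when fitting concentration-response curves for AC50 and area under the curve.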

NCI-H295R [2] = assay: AC50 viability; higher = less potent
Procedure, shortened: as §1

CU-ACC1 [3] = assay: AC50 viability; higher = less potent
Procedure, shortened: as §1

CU-ACC2 [4] = assay: area under concentration-response curve (viability) (AUC (a.u.)); higher = less active
Procedure, shortened: as §1

NCI-H295R [5] = assay: as above
Procedure, shortened: as §1

CU-ACC1 [6] = assay: as above
Procedure, shortened: as §1

| SMILES | AC50 viability (CU-ACC2 [1]) [µM] | AC50 viability (NCI-H295R [2]) [µM] | AC50 viability (CU-ACC1 [3]) [µM] | area under concentration-response curve (CU-ACC2 [4]) | area under concentration-response curve (NCI-H295R [5]) | area under concentration-response curve (CU-ACC1 [6]) |
| --- | --- | --- | --- | --- | --- | --- |
| c1cncc(CN2CCC(n3ncc4c(N5CCOCC5)nc(-c5ccc6[nH]ccc6c5)nc43)CC2)c1 | 14.8 | 16.6 | 20.9 | 472 | 446 | 442 |
| NC(=O)c1cccc2c(NC(CN3CCC3)c3ccc(Cl)c(C(F)(F)F)c3)ncnc12 (stereo not given) | 0.332 | 1.18 | 0.263 | 160 | 223 | 266 |
| COC1=CC=C(C(=C1)OC(C)C)C/2=N/[C@@H]([C@@H](N2C(=O)N3CCNC(=O)C3)C4=CC=C(Cl)C=C4)C5=CC=C(Cl)C=C5 | 14.8 | 10.5 | 11.8 | 291 | 288 | 290 |
| Cc1ccc(NC(=O)c2ccc(CN3CCN(C)CC3)cc2)cc1Nc1nc(-c2cccnc2)cs1 | 23.5 | 18.6 | 23.5 | 586 | 547 | 503 |
| C1=CC2=N/C(=N\c3ccc(OCCN4CCCC4)c(c3)COC/C=C/COCc3cccc2c3)N1 | 2.63 | 4.17 | 3.72 | 436 | 387 | 387 |
| CO/C1=C/C(C)=C\[C@@H](C)[C@@H](O)[C@@H](C)C/C(C)=C\C=C/[C@H](OC)[C@@H]([C@@H](C)[C@@H](O)[C@H](C)[C@@]2(O)C[C@@H](O)[C@H](C)[C@@H](C(C)C)O2)OC1=O | 0.0393 | 2.48 | 0.0312 | 365 | 443 | 388 |
| Cc1nc(NC(=O)N2CCC[C@H]2C(N)=O)sc1-c1ccnc(C(C)(C)C(F)(F)F)c1 | 9.34 | 18.6 | 8.33 | 457 | 421 | 439 |
| COc1cc2c(NC3CCN(C(C)C)CC3)nc(C3CCCCC3)nc2cc1OCCCN1CCCC1 | 14.8 | 9.34 | 11.8 | 350 | 404 | 369 |
| C=CC(=O)Nc1cccc(Sc2nc(Nc3ccc(N4CCN(C)CC4)cc3)ncc2Cl)c1 | 4.17 | 4.68 | 4.68 | 388 | 375 | 342 |
| C[C@@H]1CN(CC(=O)N2CC(C)(C)c3ncc(Cc4ccc(F)cc4)cc32)[C@@H](CN2CCOC[C@H]2C)CN1 | 1.32 | 20.9 | 18.6 | 451 | 462 | 449 |
| O[C@H]1CC[C@@H](Oc2cccc3cnc(Nc4ccc5nc[nH]c5c4)nc23)CC1 | 1.32 | 2.63 | 1.66 | 331 | 409 | 403 |
| CC(C)N1N/C(=C2\C=c3cc(O)ccc3=N2)c2c(N)ncnc21 | 2.63 | 2.09 | 1.66 | 520 | 472 | 401 |
| O=C(CCCCCCNC(=O)c1cnc(N(c2ccccc2)c2ccccc2)nc1)NO | 11.8 | 20.9 | 18.6 | 552 | 525 | 364 |
| CCCCc1nc2cc(/C=C/C(=O)NO)ccc2n1CCN(CC)CC | 5.9 | 1.48 | 1.66 | 405 | 453 | 416 |
| NC1=C(Cl)C(=CC=N1)OC2=C(F)C=C(NC(=O)\C3=C\N\C=C(C3=O)\C4=CC=C(F)C=C4)C=C2 | 16.6 | 13.2 | 14.8 | 502 | 490 | 437 |
| C=CC(=O)Nc1cccc(Nc2nc(Nc3ccc(Oc4ccnc(C(=O)NC)c4)cc3)ncc2F)c1 | 23.5 | 16.6 | 29.5 | 596 | 467 | 464 |
| C[C@@]12O[C@@H](C[C@]1(O)CO)n1c3ccccc3c3c4c(c5c6ccccc6n2c5c31)CNC4=O | 9.34 | 14.8 | 6.61 | 346 | 407 | 380 |
| COC[C@H](NC(=O)c1cnc(C)s1)C(=O)N[C@@H](COC)C(=O)N[C@@H](Cc1ccccc1)C(=O)[C@@]1(C)CO1 | 0.0833 | 0.0661 | 0.166 | 255 | 276 | 220 |
| Clc1ccc(C(c2ccc(Cl)cc2)[n+]2ccn(CC(OCc3ccc(Cl)cc3Cl)c3ccc(Cl)cc3Cl)c2)cc1 (stereo not given) | 11.8 | 8.33 | 13.2 | 528 | 445 | 442 |
| O=C(/C=C/C#Cc1cccc(N[S+](=O)([O-])c2ccccc2)c1)NO | 6.45 | 4.56 | 4.07 | 544 | 542 | 497 |
| CN(C)C[C@@H]1CC[N]2C=C(C3=C2C=CC=C3)C/4=C(/C(=O)NC4=O)C5=C[N](CCO1)C6=C5C=CC=C6 | 8.33 | 7.42 | 14.8 | 389 | 368 | 292 |
| CC[S+](=O)([O-])N1CCN(c2ccc(Nc3ncc(C(N)=O)c(NC4CC4)n3)cc2)CC1 | 26.3 | 16.6 | 20.9 | 561 | 499 | 474 |
| C=CCNc1c(O)cc2c(O)c1C[C@@H](C)C[C@H](OC)[C@H](O)[C@@H](C)/C=C(/C)[C@H](OC(N)=O)[C@@H](OC)/C=C\C=C(\C)C(=O)N2 | 0.525 | 14.8 | 2.95 | 335 | 419 | 335 |
| CCN(CC)CCNC(=O)c1c(C)[nH]c(/C=C2/C(=O)Nc3ccc(-c4csc(-c5ccccc5)n4)cc32)c1C | 9.34 | 7.42 | 13.2 | 521 | 453 | 369 |
| CC[C@@]1(O)C(=O)OC\C2=C1\C=C\3N(CC4=C3N=C5C=CC=CC5=C4)C2=O | 0.742 | 1.48 | 1.66 | 424 | 443 | 363 |

| SMILES | AC50 viability (CU-ACC2 [1]) [µM] | AC50 viability (NCI-H295R [2]) [µM] | AC50 viability (CU-ACC1 [3]) [µM] | area under concentration-response curve (CU-ACC2 [4]) | area under concentration-response curve (NCI-H295R [5]) | area under concentration-response curve (CU-ACC1 [6]) |
| --- | --- | --- | --- | --- | --- | --- |
| CC(C)C[C@H](NC(=O)CNC(=O)c1cc(Cl)ccc1Cl)B1OC(=O)CC(CC(=O)O)(C(=O)O)O1 (stereo not given in full) | 0.332 | 0.372 | 0.263 | 380 | 413 | 302 |
| CN[S+](=O)([O-])c1ccc2c(c1)/C(=C/c1[nH]c3c(c1CCCN1CCN(C)CC1)CCCC3)C(=O)N2 | 16.6 | 16.6 | 23.5 | 504 | 458 | 440 |
| Cc1ncc(-c2ccnc(Nc3ccc([S+](C)(=O)[O-])cc3)n2)n1C(C)C | 0.332 | 2.95 | 0.742 | 236 | 307 | 286 |
| CC1=C2N=C([NH]C2=CC(=C1)N3CCOCC3)\C4=C(NC[C@@H](O)C5=CC=CC(=C5)Cl)\C=C/NC4=O | 0.833 | 0.468 | 0.00331 | 277 | 303 | 342 |
| CC[S+](=O)([O-])c1cccc(-c2cc(C(=O)NC3CCN(C)CC3)c(C)c3[nH]c4ncc(C)cc4c23)c1 | 10.5 | 20.9 | 37.2 | 543 | 545 | 500 |
| C[C@H]([C@H]1C\C(=C(CO)/C(=O)O1)C)[C@H]2CC[C@H]3[C@@H]4C[C@H]5O[C@]56[C@@H](O)\C=C/C(=O)[C@]6(C)[C@H]4CC[C@]23C | 0.468 | 1.18 | 1.48 | 393 | 401 | 270 |
| CC(C)[C@H](C(=O)Nc1ccc(C(=O)NO)cc1)c1ccccc1 | 5.25 | 2.35 | 4.17 | 360 | 414 | 308 |
| CC(C)c1ccc(Cn2ccc3c4c(N)nc(NC5CC5)nc4ccc32)cc1 | 2.95 | 2.95 | 7.42 | 399 | 335 | 327 |
| Cc1n[nH]c2ccc(-c3cncc(OC[C@@H](N)Cc4c[nH]c5ccccc45)c3)cc12 | 2.09 | 2.95 | 1.66 | 360 | 351 | 318 |
| COCCOC(=O)N1CCN([S+](=O)([O-])c2cc(F)c(Oc3ccc(Cl)cc3)c(F)c2)C(C(=O)NO)C1 (stereo not given) | 10.5 | 20.9 | 13.2 | 428 | 507 | 471 |
| Cc1ccc2nc(NCCN)c3ncc(C)n3c2c1 | 10.5 | 14.8 | 14.8 | 369 | 423 | 413 |
| COc1cc2c(cc1O)CCN[C@]21CS[C@@H]2c3c(OC(C)=O)c(C)c4c(c3[C@H](COC1=O)N1[C@@H]2[C@H]2c3c(cc(C)c(OC)c3O)C[C@@H]([C@@H]1O)N2C)OCO4 | 0.0152 | 0.0152 | 0.00855 | 344 | 315 | 285 |
| N#Cc1c(C2CCNCC2)cc(-c2c(O)cccc2OCC2CC2)nc1N | 0.934 | 1.05 | 10.5 | 269 | 275 | 291 |
| COc1cccc2c1C(=O)c1c(O)c3c(c(O)c1C2=O)C[C@@](O)(/C(CO)=N/NC(=O)CCCCCN1C(=O)C=CC1=O)C[C@@H]3O[C@H]1C[C@H](N)[C@H](O)[C@H](C)O1 | 18.6 | 18.6 | 20.9 | 539 | 492 | 356 |
| Cc1cc(-c2ccc(CC(=O)Nc3ccc(-c4cccnc4)cc3)cc2)ccn1 | 23.5 | 16.6 | 20.9 | 460 | 440 | 435 |
| Cc1cccc(Nc2nc(-c3ccncc3)cs2)c1 | 16.6 | 14.8 | 20.9 | 549 | 531 | 497 |
| CC[C@@]1(O)C[C@H](O[C@H]2C[C@H](N(C)C)[C@H](O[C@H]3C[C@H](O)[C@H](O[C@H]4CCC(=O)[C@H](C)O4)[C@H](C)O3)[C@H](C)O2)c2c(cc3c(c2O)C(=O)c2c(O)cccc2C3=O)[C@H]1C(=O)OC | 16.6 | 16.6 | 23.5 | 533 | 523 | 453 |
| CCn1nnc2c(N3CCOCC3)nc(-c3ccc(NC(=O)Nc4ccc(C(=O)N5CCN(C)CC5)cc4)cc3)nc21 | 0.468 | 5.9 | 1.18 | 434 | 453 | 357 |
| C[C@H]1COCCN1c1cc(C2([S+](=O)([O-])C3CC3)CC2)nc(-c2ccc(NC(=S)NCCO)cc2)n1 | 0.525 | 0.661 | 0.295 | 394 | 366 | 325 |
| CC(=O)c1cc2c(o1)C(=O)c1ccccc1C2=O | 1.66 | 0.934 | 0.263 | 377 | 351 | 270 |
| CC(C)(O)c1cc2nc(-c3cnc(N)nc3)nc(N3CCOCC3)c2s1 | 2.63 | 1.05 | 1.32 | 379 | 423 | 434 |
| COC(=O)c1ccc2c(c1)NC(=O)/C2=C(\Nc1ccc(N(C)C(=O)CN2CCN(C)CC2)cc1)c1ccccc1 | 7.42 | 8.33 | 20.9 | 528 | 483 | 504 |
| O=C1c2c(O)ccc(O)c2C(=O)c2c(NCCNCCO)ccc(NCCNCCO)c21 | 9.34 | 14.8 | 16.6 | 512 | 514 | 458 |
| Cc1nc(Nc2n[nH]c3c2CN(C(=O)N[C@H](CN(C)C)c2ccccc2)C3(C)C)c2sccc2n1 | 5.25 | 9.34 | 9.34 | 442 | 462 | 433 |
| CC(C)C[C@H](NC(=O)[C@H](CCc1ccccc1)NC(=O)CN1CCOCC1)C(=O)N[C@@H](Cc1ccccc1)C(=O)N[C@@H](CC(C)C)C(=O)[C@@]1(C)CO1 | 0.0235 | 0.166 | 0.186 | 256 | 359 | 302 |
